Assay [1] relates to T1, rMroUPO.
T1 construct: gene MroUPO; mature enzyme without signal peptide, initial Met added, no tag, codon-optimised in pET23a, E. coli BL21, non-glycosylated; homodimer (C227-C227' disulfide), monomer 26-27 kDa; short UPO
Put plainly: initial rates, absorbance at […] nm, Michaelis-Menten fit. It is filed as biochemical, Marasmius rotula. The note with it: 5 mM H2O2; 0.1 M acetate pH 5.0.

Assay [2] relates to T2, rCviUPO.
T2 construct: gene CviUPO
The note with it: read-out: K228stop; K228stop variant; 1 mM H2O2; 0.1 M acetate pH 4.0.

Assay [3] deals with T2, rCviUPO. The note with it: read-out: C235A; 1 mM H2O2; 0.1 M acetate pH 4.0.
For assay [4], the system named is T3, rCviUPO.
T3 construct: gene CviUPO; mature enzyme without signal peptide, initial Met added, no tag, codon-optimised in pET23a, E. coli BL21, non-glycosylated; homodimer, monomer 26-27 kDa; known only as recombinant enzyme; short UPO
The experiment in a line: initial rates, absorbance at […] nm, Michaelis-Menten fit. It is filed as biochemical, Collariella virescens. To be noted: K228stop variant; 1 mM H2O2; 0.1 M tartrate pH 5.0.

The test system of assay [5] is T1, rMroUPO. Described as above. It is filed as biochemical, Marasmius rotula. To be noted: 5 mM H2O2; 0.1 M tartrate pH 4.0.
Assay [6] has as its system T3, rCviUPO. The assay is described as above. It is filed as biochemical, Collariella virescens. The note with it: 1 mM H2O2; 0.1 M tartrate pH 5.0; read-out: C235A.
The test system of assay [7] is T3, rCviUPO. The assay is described as above. It is filed as biochemical, Collariella virescens. To be noted: 1 mM H2O2; 0.1 M tartrate pH 5.0.
The test system of assay [8] is T3, rCviUPO. The description is as above. It is filed as biochemical, Collariella virescens. The note with it: 1 mM H2O2; 0.1 M acetate pH 3.
The test system of assay [9] is T3, rCviUPO. Described as above. It is filed as biochemical, Collariella virescens. The note with it: 1 mM H2O2; pH 4.0 (table note; methods text gives pH 3 or 5); read-out: C235A.
For assay [10], the system named is T1, rMroUPO. Described as above. The note with it: 5 mM H2O2; 0.1 M acetate pH 4.6. It is filed as biochemical, Marasmius rotula.
Assay [11] relates to T3, rCviUPO. The description is as above. It is filed as biochemical, Collariella virescens. To be noted: K228stop variant; 1 mM H2O2; pH 4.0 (table note; methods text gives pH 3 or 5).
The target of assay [12] is rCviUPO C235A variant (Collariella virescens). Put plainly: AUC + other: dynamic light scattering; sedimentation velocity, c(s) distributions (SEDFIT); diffusion coefficients from parallel DLS; molecular mass by the Svedberg equation.
For assay [13], the target named is rCviUPO K228stop variant (C-terminal tail deletion) (Collariella virescens). The description is as above.
Assay [14] has as its target recombinant unspecific peroxygenase from Collariella virescens (rCviUPO), native (nonmutated) (Collariella virescens). The description is as above.
Assay [15] has the same target. The experiment in a line: SEC; Superdex 75, isocratic elution with 10 mM Tris (pH 7.4), 0.15 M NaCl; masses against standards, compared with SDS-PAGE with mercaptoethanol; P201stop analysed during its last purification step. On the technique in general: In gel filtration, larger molecules generally elute earlier.
In assay [16] the target is recombinant unspecific peroxygenase from Marasmius rotula (rMroUPO), native (nonmutated) (Marasmius rotula). Described as above.

Where two headings read alike, the source gives them in different places.

On to `CCn1c(=NN=c2sc3cc(S(=O)(=O)O)ccc3n2CC)sc2cc(S(=O)(=O)O)ccc21` [ABTS, 2,2′-azino-bis(3-ethylbenzothiazoline-6-sulfonic acid)], for which the Km in the assay with rMroUPO [1] amounted to 246 ± 3 µM; with rCviUPO [2], 110 ± 15 µM; with rCviUPO [3], 87 ± 7 µM.
Consider `COc1cccc(OC)c1O` [DMP, 2,6-dimethoxyphenol], for which the Km turned out to be 3720 ± 250 µM in the assay on rCviUPO [4], 206 ± 38 µM with rMroUPO [5], 4500 ± 424 µM in the assay on rCviUPO [6] and 4930 ± 470 µM in the assay on rCviUPO [7].
Turning to `COc1ccc(CO)cc1OC` [Veratryl alcohol], the Km was 2940 ± 160 µM with rCviUPO [8], 7240 ± 820 µM in the assay on rCviUPO [9], 54.2 ± 16.7 µM with rMroUPO [10] and 55300 µM with rCviUPO [11].
For orientation: stoichiometry N means a count of units in the complex or per binding partner. For rCviUPO C235A variant (enzyme), the stoichiometry N in assay [12] was 2.
In the case of “rCviUPO K228stop variant (C-terminal tail deletion) (domain or fragment)”, the stoichiometry N in [13] was found to be 2.
Regarding “recombinant unspecific peroxygenase from Collariella virescens (rCviUPO), native (nonmutated) (enzyme)”, the stoichiometry N in assay [14] and in assay [15] was 2 throughout.
For the compound “recombinant unspecific peroxygenase from Marasmius rotula (rMroUPO), native (nonmutated) (enzyme)”, the stoichiometry N in assay [16] was 2.

Source of the values: PMC9137552, “Structural Characterization of Two Short Unspecific Peroxygenases: Two Different Dimeric Arrangements” (Antioxidants, 2022).
